Key:
[1] = tested on: post-surgical inflammation and infection; test: Intracameral implants of Compound 1 and 9 in subjects receiving ocular surgery (Example 21); type: in vivo; details: intracameral implants of both compounds; dexamethasone and fusidic acid release over days to weeks to a few months
Description: Cylinders, pellets, or fibrous meshes of Compound 1 and 9 are formed using the methods described above. The implants are inserted intracamerally into subjects that are receiving an ocular surgical procedure.

[2] = tested on: post-surgical infection in the eye; test: Intracameral implants of Compound 9 in subjects receiving ocular surgery (Example 19); type: in vivo; details: fusidic acid release over days to weeks to a few months
Description: Cylinders, pellets, or fibrous meshes of Compound 9 are formed using the methods described above. The implants are inserted intracamerally into subjects that are receiving an ocular surgical procedure.

intraocular pressure [3] = test: Intracameral implants of Compound 7 in subjects with glaucoma (Example 17); type: in vivo; details: intracameral cylinders, pellets or fibrous meshes; anecortave release by surface erosion over months to years
Description: Cylinders, pellets, or fibrous meshes of Compound 7 are formed using the methods described above. The implants are inserted intracamerally into subjects with glaucoma.

intraocular pressure [4] = test: Suprachoroidal insert of Compound 7 in a subject with glaucoma (Example 18); type: in vivo; details: cylinder or tube as conduit into suprachoroidal space, anecortave release; months to years
Description: A cylinder or tube of Compound 7 is formed using the methods described above. The implant is inserted into the eye of a subject with glaucoma to create a conduit from the anterior chamber into the suprachoroidal space.

[5] = Intravitreal cylinders for inflammatory or neovascularization conditions (Example 9); type: in vivo; details: cylinders injected into the vitreous humour
Description: Cylinders of Compound 1 are formed using methods described above. The cylinders are injected into the vitreous humour and release dexamethasone to the surrounding tissues including tissues in the anterior eye, the posterior eye, and surrounding tissues. […] The intravitreal implants release drug that may be used in subjects with diabetic macular edema, macular edema from retinal vein occlusion, uveitis, cystoid macular edema, post-surgical inflammation (e.g. cataract or glaucoma surgery), age-related macular degeneration, and other ocular conditions.

[6] = tested on: endotoxin-induced inflammation in the eye; test: Endotoxin (LPS)-induced inflammation in the eye after intravitreal implantation, OCT vitreal cell count and retinal thickness; type: in vivo; details: rat, intravitreal 23 G and 30 G implants; LPS 1 day (acute) or 60 days (sub-chronic) post-implantation
Description: The implants were loaded into 23 G and 30 G needles respectively and were sterilized by ethylene oxide (ETO) gas. An acute study evaluating only the 23 G heat molded implants was performed and a sub-chronic study evaluating both implants followed. […] Inflammation in the eye was induced using an intravitreal injection of the endotoxin lipopolysaccharide (LPS) 1-day post-implantation for the acute study and 60 days post-implantation for the sub-chronic study. […] Optical coherence tomography (OCT) was used to image the eyes (FIG. 6E) and inflammation was assessed by quantifying the number of cells in the vitreous humour and the thickness of the retinal tissue measured from the OCT images.

[7] = tested on: post-surgical inflammation in the eye; test: Intracameral fiber mesh or cylinder after surgery (Example 12); type: in vivo; details: steady release over several months, e.g., three months
Description: Fibers or cylinders are formed from Compound 1 according to the methods described above. The fibers are woven into a mesh and are placed into the eye of a subject having received surgery.

rat eyes = test: Surface erosion of intravitreal implants in rat eyes, fundus microscopy; type: in vivo; details: heat-molded cylinders injected intravitreally
Description: The cylinders were injected intravitreally into rat eyes.

[8] = 37° C.
Description: Heat-molded pellets from Compound 1 (˜1 mm×1 mm) were placed in 20 mL glass vials and 2 mL of release buffer (either 100% phosphate buffered saline (PBS), 1% fetal bovine serum (FBS) in PBS, or 100% FBS) was added. Samples were incubated at 37° C. on a shaker rotating at 115 rpm. After 1 day, 3 days, 7 days, and subsequently in alternating 3 and 4 day intervals (i.e., 1, 3, 7, 10, 14 days etc.), release buffer was sampled directly (PBS) or syringe filtered, proteins were precipitated with acetonitrile, and drug release products were extracted. The samples were analyzed by high performance liquid chromatography (HPLC) to quantify drug products. Cumulative drug release was calculated and plotted as a percentage of the total drug in each pellet released over time (FIG. 1E).
Drug release from the glassy state heat molded pellets was carried out in PBS and/or 100% FBS, as described in Example 1, for different time periods.
Drug release from the pellets (˜1 mm×1 mm and 1 mg of total mixture) was carried out in PBS as described in Example 1. Cumulative drug release was calculated and plotted as a percentage of the total drug released over time.

[9] = tested on: post-surgical inflammation in the eye; test: Schlemm's canal fiber or tube implant after surgery (Example 11); type: in vivo; details: release by surface erosion over weeks to months
Description: A fiber or tube of Compound 1 is formed using the methods described above.

[10] = tested on: VEGF-induced retinal vascular leakage; test: VEGF-induced retinal vascular leakage after intravitreal implantation, fundus microscopy and fluorescein angiography; type: in vivo; details: Dutch belted rabbits, intravitreal 27 G and 30 G cylinders; VEGF at 1 week and 10 weeks post-implantation; versus sham injection
Description: The cylinders were extruded with 27 G and 30 G nozzles to get diameters ˜0.2 mm and ˜0.12 mm respectively. The cylinders were cut to different lengths, ETO gas sterilized, and injected intravitreally into the eyes of Dutch belted rabbits. VEGF was injected intravitreally at 1 week and 10 weeks post-implantation to induce retinal vascular leakage. Sham injection was used as a negative control.

intraocular pressure [11] = test: Suprachoroidal insert of Compound 1 in a subject with glaucoma (Example 14); type: in vivo; details: cylinder or tube as conduit from anterior chamber into suprachoroidal space; months to years
Description: A cylinder or tube of Compound 1 is formed using the methods described above. The implant is inserted into the eye of a subject with glaucoma to create a conduit from the anterior chamber into the suprachoroidal space.

[12] = tested on: inflammation or neovascularization; test: Micro- or nanoparticles injected into the suprachoroidal space (Example 13); type: in vivo; details: release over months to years
Description: Micro- or nanoparticles of Compound 1 are formed using the methods described above. The particles are injected into the suprachoroidal space of a subject with an ocular condition associated with inflammation or neovascularization or as an adjunctive therapy to reduce inflammation associated with ocular surgery.

[13] = Dexamethasone in the vitreous humour after intravitreal injection of cylinders; type: in vivo; details: New Zealand white rabbits, intravitreal cylinders 30 G×1 mm, 30 G×6 mm, 23 G×6 mm
Description: The cylinders were injected intravitreally into New Zealand white rabbits and dexamethasone was quantified in the vitreous humour at different time points.

[14] = tested on: tissue response to the device; test: Coating on a MIGS device inserted into the eye (Example 10); type: in vivo; details: drug released over months to years
Description: Coating of Compound 1 is applied onto a MIGS device as described in the methods above.

Compound: Fusidic Acid-Triethylene Glycol-Fusidic Acid (carbonate ester) [Compound 9]
- post-surgical inflammation and infection [1]: reduce inflammation associated with the surgery and prevent infection
- post-surgical infection [2]: prevent infection

Compound: Anecortave-Triethylene Glycol-Anecortave [Compound 7]
- intraocular pressure (intraocular pressure [3]): lower intraocular pressure in the eye
- intraocular pressure (intraocular pressure [4]): reduce intraocular pressure

Compound: C[C@@H]1C[C@H]2[C@@H]3CCC4=CC(=O)C=C[C@]4(C)[C@@]3(F)[C@@H](O)C[C@]2(C)[C@@]1(O)C(=O)COC(=O)OCCOCCOCCOC(=O)OCC(=O)[C@@]1(O)[C@H](C)C[C@H]2[C@@H]3CCC4=CC(=O)C=C[C@]4(C)[C@@]3(F)[C@@H](O)C[C@@]21C [Compound 1, Dexamethasone-Triethylene Glycol-Dexamethasone]
- duration of dexamethasone release by surface erosion [5]: months to years
- inflammation in the eye (vitreal cell count and retinal thickness by OCT) [6]: inhibit endotoxin-induced inflammation in the eye
- inflammation in the eye [7]: Inflammation in the eye is reduced
- erosion of the implant in the eye over time (fundus microscopy) (rat eyes): surface erosion of the implant
- in vitro drug release, dose and duration ([8]; extruded cylinders 30 G×1 mm, 30 G×6 mm, 23 G×6 mm, PBS): roughly following surface erosion theory
- cumulative drug release plotted over time ([8]; glassy state heat molded pellets ~1 mm×1 mm, PBS and/or 100% FBS): mostly linearly
- erosion of pellets over time (representative images) ([8]; heat-molded pellets ~1 mm×1 mm, 100% FBS): surface erosion over time
- post-surgical inflammation [9]: prevent or reduce inflammation associated with the surgical procedure
- retinal vascular leakage [10]: inhibited VEGF-induced retinal vascular leakage
- intraocular pressure (intraocular pressure [11]): reduce intraocular pressure
- inflammation or neovascularization [12]: reduces inflammation or neovascularization
- dexamethasone concentration in the vitreous humour over time [13]: consistent dose of dexamethasone is released
- post-surgical inflammation and infection [1]: reduce inflammation associated with the surgery and prevent infection
- tissue response and fibrosis [14]: inhibit a tissue response to the device and reduce fibrosis

Reference: patent US11612567B2, “Ocular inserts comprising a covalently linked steroid dimer” (Ripple Therapeutics Corporation, priority 2018, dated 2023)
